21 molecules from US12227496B2 (BRISTOL-MYERS SQUIBB COMPANY, priority 2019, dated 2025) can be followed below.

A word on the EC50: it is the concentration giving half of the maximal effect. Higher therefore signals lower potency in that assay.

The target in this experiment is T1, human FXR (Homo sapiens, UniProt Q96RI1).
T1 construct: expressed in transfected cells; host or cells: HEK293 cells stably carrying a 5xGal4-response-element firefly luciferase reporter, transiently transfected with pcDNA3.1-Gal4-FXR
T1 sequence (Q96RI1 262-486 limits assumed): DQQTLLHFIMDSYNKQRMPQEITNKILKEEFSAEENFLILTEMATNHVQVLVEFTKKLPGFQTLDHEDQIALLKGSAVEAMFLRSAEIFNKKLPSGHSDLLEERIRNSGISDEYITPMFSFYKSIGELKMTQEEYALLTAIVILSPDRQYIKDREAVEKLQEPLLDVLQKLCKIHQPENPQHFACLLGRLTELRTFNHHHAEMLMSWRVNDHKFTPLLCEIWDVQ
Kind of experiment: transient human FXR/Gal4-luciferase reporter assay. Type of experiment: cell-based. Particulars: Gal4-hFXR LBD fusion, luciferase reporter in HEK293 cells; response relative to 8 μM GW-4064. The method, then:
A Gal4-hFXR fusion construct reporter system was used as the primary assay to characterize compound activity. A construct including 5 copies of the Gal4 promoter response element upstream of a firefly luciferase reporter cDNA was stably expressed in HEK293 cells. This reporter cell line was maintained in Dulbecco's Modified Eagle's medium (DMEM; Gibco) supplemented with 1% penicillin-streptomycin (P/S) solution, 500 μg/mL Zeocin and 10% charcoal/dextran-treated fetal bovine serum (cs-FBS) at 37° C. in a humidified 5% CO2 atmosphere. […] The day prior to transfection, the reporter cells in culture are detached from the plate with trypsin and plated into a T75 flask at a sufficient density to achieve approximately 90% confluence the next morning. […] The mixture is further diluted with 10 mL of a solution comprised of DMEM, 10% cs-FBS, and 1% P/S immediately prior to transferring to the cells. The maintenance culture media is aspirated from the cells and the final transfection mixture is added before the cells are incubated overnight at 37° C. in a humidified 5% CO2 atmosphere. This protocol can be scaled up, and the transiently transfected cells can be cryopreserved in an assay-ready format. For compound testing, 100 nL of the compounds (serial dilutions in DMSO) are dispensed with an Echo acoustic dispenser (Labcyte) into the wells of a Corning/Costar clear bottom 384-well white plate. The transfected cells are harvested, counted, and diluted such that 10-25,000 cells in 25 μL are plated into each well of the 384-well compound assay plate. The compound-treated cells are incubated overnight at 37° C. in a humidified 5% CO2 atmosphere. The next morning 25 μL of Steady-Glo (Promega) are added to each well of the plate, the mixture is incubated for 15 min. with shaking, and luminescence is measured on an Envision (Perkin Elmer) plate reader.
(In general: Reporter assays use an easily measured gene product as a stand-in for the process of interest.)
Regarding `COCc1nc(-c2cccc(N(CC34CCC(c5nc(C6CC6)no5)(CC3)CC4)C(=O)C3CCOCC3)c2)cs1` [Example 47, N-((4-(3-cyclopropyl-1,2,4-oxadiazol-5-yl)bicyclo[2.2.2]octan-1-yl)methyl)-N-(3-(2-(methoxymethyl)thiazol-4-yl)phenyl)tetrahydro-2H-pyran-4-carboxamide], the EC50 is 0.121 µM. In turn, `O=C(C1CCCCC1)N(CC12CCC(c3nc(C4CC4)no3)(CC1)CC2)c1cccc(-c2cnc(C3CC3)o2)c1` [Example 22, N-((4-(3-cyclopropyl-1,2,4-oxadiazol-5-yl)bicyclo[2.2.2]octan-1-yl)methyl)-N-(3-(2-cyclopropyloxazol-5-yl)phenyl)cyclohexanecarboxamide] displayed an EC50 of 0.037 µM. With `CCOc1ncc(-c2cccc(N(CC34CCC(c5nc(C(C)(C)C)no5)(CC3)CC4)C(=O)c3cc(Cl)cc(Cl)c3)c2)cn1` [Example 125, N-((4-(3-(tert-Butyl)-1,2,4-oxadiazol-5-yl)bicyclo[2.2.2]octan-1-yl)methyl)-3,5-dichloro-N-(3-(2-ethoxypyrimidin-5-yl)phenyl)benzamide] the figure was 0.726 µM. In the case of `CCOc1nnc(-c2cccc(N(CC34CCC(c5nc(C6CC6)no5)(CC3)CC4)C(=O)C3CCC(F)(F)CC3)c2)o1` [Example 39, N-((4-(3-cyclopropyl-1,2,4-oxadiazol-5-yl)bicyclo[2.2.2]octan-1-yl)methyl)-N-(3-(5-ethoxy-1,3,4-oxadiazol-2-yl)phenyl)-4,4-difluorocyclohexane-1-carboxamide], the EC50 was 0.13 µM. With `Cn1nc(C2CC2)cc1C12CCC(CN(C(=O)C3CCS(=O)(=O)CC3)c3cccc(-c4cc(C5CC5)no4)c3)(CC1)CC2` [Example 138, N-((4-(3-cyclopropyl-1-methyl-1H-pyrazol-5-yl)bicyclo[2.2.2]octan-1-yl)methyl)-N-(3-(3-cyclopropylisoxazol-5-yl)phenyl)tetrahydro-2H-thiopyran-4-carboxamide 1,1-dioxide] the figure was 1.58 µM; with `CN1CCC(C(=O)N(CC23CCC(c4cc(C5CC5)nn4C)(CC2)CC3)c2cccc(-c3ccc(S(C)(=O)=O)cc3)c2)CC1` [Example 136, N-((4-(3-cyclopropyl-1-methyl-1H-pyrazol-5-yl)bicyclo[2.2.2]octan-1-yl)methyl)-1-methyl-N-(4′-(methylsulfonyl)-[1,1′-biphenyl]-3-yl)piperidine-4-carboxamide], 4 µM; with `O=C(C1CCC(F)(F)CC1)N(CC12CCC(c3noc(C4CC(O)(C(F)(F)F)C4)n3)(CC1)CC2)c1cccc(-c2cnc(C3CC3)nc2)c1` (stereo not drawn) [Example 120, N-(3-(2-cyclopropylpyrimidin-5-yl)phenyl)-4,4-difluoro-N-((4-(5-(3-hydroxy-3-(trifluoromethyl)cyclobutyl)-1,2,4-oxadiazol-3-yl)bicyclo[2.2.2]octan-1-yl)methyl)cyclohexane-1-carboxamide], 2 µM.

As for `CC(C)(C)c1noc(C23CCC(CN(C(=O)C4CCC(F)(F)CC4)c4cccc(-c5cc(C6CC6)on5)c4)(CC2)CC3)n1` [Example 159, N-((4-(3-(tert-butyl)-1,2,4-oxadiazol-5-yl)bicyclo[2.2.2]octan-1-yl)methyl)-N-(3-(5-cyclopropylisoxazol-3-yl)phenyl)-4,4-difluorocyclohexane-1-carboxamide], a half-maximal response (EC50) required 0.078 µM. Turning to `CC(C)(C)c1nc(C23CCC(CN(C(=O)C4CCS(=O)(=O)CC4)c4cccc(-c5nc(C6CC6)no5)c4)(CC2)CC3)no1` [Example 117, N-((4-(5-(tert-butyl)-1,2,4-oxadiazol-3-yl)bicyclo[2.2.2]octan-1-yl)methyl)-N-(3-(3-cyclopropyl-1,2,4-oxadiazol-5-yl)phenyl)tetrahydro-2H-thiopyran-4-carboxamide 1,1-dioxide], the midpoint of the response, the EC50, lay at 0.729 µM. With `COc1cc(-c2cccc(N(CC34CCC(c5nc(C6CC6)no5)(CC3)CC4)C(=O)C3CCCCC3)c2)no1` [Example 12, N-((4-(3-cyclopropyl-1,2,4-oxadiazol-5-yl)bicyclo[2.2.2]octan-1-yl)methyl)-N-(3-(5-methoxyisoxazol-3-yl)phenyl)cyclohexanecarboxamide] the figure was 0.129 µM; with `COc1cc(-c2cccc(N(CC34CCC(c5nc(C)no5)(CC3)CC4)C(=O)C3CCCCC3)c2)no1` [Example 11, N-(3-(5-methoxyisoxazol-3-yl)phenyl)-N-((4-(3-methyl-1,2,4-oxadiazol-5-yl)bicyclo[2.2.2]octan-1-yl)methyl)cyclohexanecarboxamide], 0.66 µM. With `COc1cc(-c2cccc(N(CC34CCC(c5nnc(C)s5)(CC3)CC4)C(=O)C3CCOCC3)c2)ccn1` [Example 81, N-(3-(2-methoxypyridin-4-yl)phenyl)-N-((4-(5-methyl-1,3,4-thiadiazol-2-yl)bicyclo[2.2.2]octan-1-yl)methyl)tetrahydro-2H-pyran-4-carboxamide] the figure was 2.5 µM. With `Cc1nc2ccc(-c3cccc(N(CC45CCC(c6nc(C7CC7)no6)(CC4)CC5)C(=O)C4CCCCC4)c3)cc2s1` [Example 90, N-((4-(3-cyclopropyl-1,2,4-oxadiazol-5-yl)bicyclo[2.2.2]octan-1-yl)methyl)-N-(3-(2-methylbenzo[d]thiazol-6-yl)phenyl)cyclohexanecarboxamide] the figure was 0.036 µM; with `COC(=O)c1noc(-c2cccc(N(CC34CCC(c5nc(C6CC6)no5)(CC3)CC4)C(=O)C3CCCCC3)c2)n1` [Example 2, Methyl 5-(3-(N-((4-(3-cyclopropyl-1,2,4-oxadiazol-5-yl)bicyclo[2.2.2]octan-1-yl)methyl)cyclohexanecarboxamido)phenyl)-1,2,4-oxadiazole-3-carboxylate], 0.211 µM; with `CCOc1ncc(-c2cccc(N(CC34CCC(c5noc(C(C)(C)F)n5)(CC3)CC4)C(=O)c3ccc(OC(F)F)cc3)c2)cn1` [Example 144, 4-(difluoromethoxy)-N-(3-(2-ethoxypyrimidin-5-yl)phenyl)-N-((4-(5-(2-fluoropropan-2-yl)-1,2,4-oxadiazol-3-yl)bicyclo[2.2.2]octan-1-yl)methyl)benzamide], 0.334 µM. `CC(F)(F)c1nc(C23CCC(CN(C(=O)C4CCOCC4)c4cccc(-c5cn[nH]c(=O)c5)c4)(CC2)CC3)no1` [Example 129, N-((4-(5-(1,1-difluoroethyl)-1,2,4-oxadiazol-3-yl)bicyclo[2.2.2]octan-1-yl)methyl)-N-(3-(6-oxo-1,6-dihydropyridazin-4-yl)phenyl)tetrahydro-2H-pyran-4-carboxamide] returned an EC50 of 1.48 µM. With `O=C(C1CCCOC1)N(CC12CCC(c3nc(C4CC4)no3)(CC1)CC2)c1cccc(-c2cnc(C3CC3)o2)c1` (racemic) [Example 25, N-((4-(3-cyclopropyl-1,2,4-oxadiazol-5-yl)bicyclo[2.2.2]octan-1-yl)methyl)-N-(3-(2-cyclopropyloxazol-5-yl)phenyl)tetrahydro-2H-pyran-3-carboxamide], the EC50 was 0.074 µM. This EC50 is about 20-fold lower than that of the molecule before. `O=C(C1CCCOC1)N(CC12CCC(c3nc(C4CC4)no3)(CC1)CC2)c1cccc(-c2nc(C3CC3)no2)c1` (racemic) [Example 16, N-((4-(3-cyclopropyl-1,2,4-oxadiazol-5-yl)bicyclo[2.2.2]octan-1-yl)methyl)-N-(3-(3-cyclopropyl-1,2,4-oxadiazol-5-yl)phenyl)tetrahydro-2H-pyran-3-carboxamide] yielded an EC50 of 0.226 µM. With `CC(F)(F)c1nc(C23CCC(CN(C(=O)C4CCC(F)(F)CC4)c4cccc(-c5nc(C6CC6)no5)c4)(CC2)CC3)no1` [Example 112, N-(3-(3-cyclopropyl-1,2,4-oxadiazol-5-yl)phenyl)-N-((4-(5-(1,1-difluoroethyl)-1,2,4-oxadiazol-3-yl)bicyclo[2.2.2]octan-1-yl)methyl)-4,4-difluorocyclohexane-1-carboxamide] the figure was 0.142 µM; with `COc1cc(-c2cccc(N(CC34CCC(c5nnc(C)s5)(CC3)CC4)C(=O)C3CCCCC3)c2)ccn1` [Example 80, N-(3-(2-methoxypyridin-4-yl)phenyl)-N-((4-(5-methyl-1,3,4-thiadiazol-2-yl)bicyclo[2.2.2]octan-1-yl)methyl)cyclohexanecarboxamide], 0.532 µM; with `O=C(N1CCCCC1)N(CC12CCC(c3nc(C4CC4)no3)(CC1)CC2)c1cccc(-c2nc(C3CC3)no2)c1` [Example 57, N-((4-(3-cyclopropyl-1,2,4-oxadiazol-5-yl)bicyclo[2.2.2]octan-1-yl)methyl)-N-(3-(3-cyclopropyl-1,2,4-oxadiazol-5-yl)phenyl) piperidine-1-carboxamide], 0.819 µM.
